The assay deals with hMC4R (Homo sapiens (Human), UniProt P32245). Briefly: LANCE cAMP assay, hMC4R PAM. Format: cell-based. The note with it: HEK293 cells stably expressing the hMC4R; α-MSH at an EC20 dose. The procedure:
Analysis of pharmacological properties of compounds was performed using the LANCE cAMP kit (Perkin Elmer). HEK293 cells stably expressing the hMC4R were treated with PAM compounds at doses indicated, then incubated with an Alexa Fluor 647-labeled antibody in stimulation buffer according to manufacturer's instructions for 30 min at RT. Next, α-MSH was added (at an EC20 dose or at doses indicated for concentration-response curves), and plates were incubated for 15 minutes at RT, followed by the addition of 10 μL of detection mix. Plates were then incubated for 30 minutes at RT and read on a Viewlux (Perkin Elmer) using 618 and 671 nm emission filters. IBMX was not included in the assay.
In general terms: Time-resolved FRET reads energy transfer from a long-lived donor to a nearby acceptor.

SMILES strings stand for the structures.

hMC4R, sequence (P32245 whole entry): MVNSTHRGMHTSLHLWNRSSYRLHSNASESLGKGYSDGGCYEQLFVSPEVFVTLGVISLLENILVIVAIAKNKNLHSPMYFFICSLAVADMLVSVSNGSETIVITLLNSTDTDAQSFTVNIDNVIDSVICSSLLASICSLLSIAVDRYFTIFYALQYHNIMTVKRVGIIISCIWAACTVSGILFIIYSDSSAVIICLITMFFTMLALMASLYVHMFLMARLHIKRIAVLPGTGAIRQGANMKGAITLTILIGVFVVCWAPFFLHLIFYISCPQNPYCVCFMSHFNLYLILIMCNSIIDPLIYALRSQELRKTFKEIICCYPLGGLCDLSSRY

Consider `O=C(CN1CCC(c2ccccc2)CC1)Nc1c(C(=O)C2CC2)[nH]c2ccc(Br)cc12` [Example 8], for which the “hMC4R PAM LANCE pEC50 Mean” value is listed as 6.5.
On the same count and under the same terms, to `Cc1cccc(N2CCN(CC(=O)Nc3c(C(=O)C4CC4)[nH]c4ccccc34)CC2)c1C` [Example 10] belongs 6.5.
On the same count and under the same terms, the value for `CC1(C)CCCN(CC(=O)Nc2c(C(=O)C3CC3)[nH]c3ccc(N4CCOCC4)cc23)C1` [Example 53] was 5.7; that for `COC(=O)c1[nH]c2ccccc2c1NC(=O)CN1CCC(N2CCc3ccccc32)CC1` [Example 49] was 6.2; that for `COC(=O)c1[nH]c2ccc(Br)cc2c1NC(=O)CN1CCSCC1` [Example 36] was 5.8.
With `CC(C(=O)Nc1c(C(=O)C2CC2)[nH]c2ccccc12)N1CCC(C2CCCC2)CC1` (stereo not shown) [Example 71], the “hMC4R PAM LANCE pEC50 Mean” value is given as 6.4.
The same measure, in the same setting: the value for `O=C(CN1CCC(C2CCCC2)CC1)Nc1c(C(=O)C2CC2)[nH]c2ccncc12` [Example 59] was 6.7; that for `O=C(CN1CCC(C2CCCCC2)CC1)Nc1c(C(=O)C2CC2)[nH]c2ccccc12` [Example 37] was 6.6.
For the molecule `CC(=O)c1[nH]c2ccccc2c1NC(=O)CN1CCC(C2CCCCC2)CC1` [Example 42], the “hMC4R PAM LANCE pEC50 Mean” value is given as 6.5.
Still for that read-out and setting: to `CC1(C)CCCN(CC(=O)Nc2c(C(=O)C3CC3)[nH]c3ccc(Br)cc23)C1` [Example 7] belongs 6.4; to `COC(=O)c1[nH]c2ccc(Br)cc2c1NC(=O)CN1CCN(c2cccc(C)c2C)CC1` [Example 5], 6.5.
The same measure, in the same setting: to `COC(=O)c1[nH]c2ccc(Cl)cc2c1NC(=O)CN1CCC(c2ccccc2)CC1` [Example 4] belongs 6.5; to `COC(=O)c1[nH]c2ccc(Br)cc2c1NC(=O)CN1CCC(Cc2ccccc2)CC1` [Example 22], 6.2; to `COC(=O)c1[nH]c2ccccc2c1NC(=O)CN1CCC(Cc2ccccc2)CC1` [Example 24], 6.
On the same count and under the same terms, to `O=C(CN1CCN(Cc2ccccc2)CC1)Nc1c(C(=O)C2CC2)[nH]c2ccc(Br)cc12` [Example 14] belongs 6.2; to `COC(=O)c1[nH]c2ccc(C)cc2c1NC(=O)CN1CCC(Cc2ccccc2)CC1` [Example 75], 5.9; to `O=C(CN1CCC(c2ccccc2)CC1)Nc1c(C(=O)C2CC2)[nH]c2ccncc12` [Example 67], 6.5.
For `COC(=O)c1[nH]c2ccc(C)cc2c1NC(=O)CN1CCN(c2cccc(OC)c2)C(C)C1` (stereo not shown) [Example 31], the “hMC4R PAM LANCE pEC50 Mean” value worked out at 5.8.
Same read-out and setting: the value for `O=C(CN1CCC(c2ccccc2)CC1)Nc1c(C(=O)C2CCC2)[nH]c2ccccc12` [Example 56] was 5.9; that for `COC(=O)c1[nH]c2ccc(C)cc2c1NC(=O)CN1CCN(c2cccc(C)c2C)CC1` [Example 27] was 5.9; that for `CC(=O)c1[nH]c2ccccc2c1NC(=O)CN1CCC(Cc2ccccc2)CC1` [Example 18] was 6.1.
On the same count and under the same terms, the value for `CC(=O)c1[nH]c2ccccc2c1NC(=O)CN1CCC(C2CCCC2)CC1` [Example 40] was 6.5.
Still for that read-out and setting: the value for `CC(=O)c1[nH]c2ccc(Br)cc2c1NC(=O)CN1CCCC(C)(C)C1` [Example 51] was 6; that for `COC(=O)c1[nH]c2ccc(Br)cc2c1NC(=O)CN1CCN(Cc2ccccc2)CC1` [Example 35] was 5.8.
Take `COC(=O)c1[nH]c2ccc(N3CCOCC3C)cc2c1NC(=O)CN1CCC(C2CCCCC2)CC1` (stereo not shown) [Example 60]: the “hMC4R PAM LANCE pEC50 Mean” value was found to be 6.7.
Same read-out and setting: the value for `CC(=O)c1[nH]c2ccncc2c1NC(=O)CN1CCC(C2CCCC2)CC1` [Example 64] was 6.6.
The same measure, in the same setting: the value for `COC(=O)c1[nH]c2ccc(Br)cc2c1NC(=O)C(C)N1CCC(Cc2ccccc2)CC1` (stereo not shown) [Example 20] was 6.2; that for `CC1COCCN1c1ccc2[nH]c(C(=O)C3CC3)c(NC(=O)CN3CCCC(C)(C)C3)c2c1` (stereo not shown) [Example 76] was 5.7.
On the same count and under the same terms, the value for `CC(=O)c1[nH]c2ccc(Br)cc2c1NC(=O)CN1CCC(Cc2ccccc2)CC1` [Example 44] was 6.4.
For the molecule `COC(=O)c1[nH]c2ccccc2c1NC(=O)CN1CCC(N(C)c2ccccc2)CC1` [Example 45], the “hMC4R PAM LANCE pEC50 Mean” value is given as 6.3.
For `CC(=O)c1[nH]c2ccccc2c1NC(=O)CN1CCN(Cc2ccccc2)CC1` [Example 33], the “hMC4R PAM LANCE pEC50 Mean” value turned out to be 5.6.
For `COC(=O)c1[nH]c2ccc(Br)cc2c1NC(=O)CN1CCN(C2c3ccccc3-c3ccccc32)CC1` [Example 46], the “hMC4R PAM LANCE Asym Max” value was determined as 48 and the “hMC4R PAM LANCE pEC50 Mean” value amounted to 6.3.
In the case of `O=C(CN1CCC(C2CCCCC2)CC1)Nc1c(C(=O)C2CC2)[nH]c2ccc(Cl)cc12` [Example 38], the “hMC4R PAM LANCE pEC50 Mean” value turned out to be 6.6.
The same measure, in the same setting: to `CC(=O)c1[nH]c2ccccc2c1NC(=O)CN1CCC(OC2CCCCC2)CC1` [Example 77] belongs 5.8; to `O=C(CN1CCC(C2CC2)CC1)Nc1c(C(=O)C2CC2)[nH]c2ccccc12` [Example 54], 6.
Turning to `CC(=O)c1[nH]c2ccccc2c1NC(=O)CN1CCC(Oc2ccccc2)CC1` [Example 52], the “hMC4R PAM LANCE pEC50 Mean” value is on record as 5.9.
The same measure, in the same setting: the value for `CC1(C)CCCN(CC(=O)Nc2c(C(=O)C3CC3)[nH]c3ccncc23)C1` [Example 74] was 6.2; that for `CCOC(=O)c1[nH]c2ncccc2c1NC(=O)CN1CCCC(C)(C)C1` [Example 34] was 5.7.
Same read-out and setting: the value for `O=C(CN1CCN(c2ccccc2)CC1)Nc1c(C(=O)C2CC2)[nH]c2ccncc12` [Example 73] was 6.2; that for `COC(=O)c1[nH]c2ccc(Br)cc2c1NC(=O)CN1CCCCC1` [Example 26] was 6; that for `COC(=O)c1[nH]c2ccccc2c1NC(=O)CN1CCC(Oc2ccccn2)CC1` [Example 32] was 5.8.
On the same count and under the same terms, the value for `O=C(CN1CCC(C2CCCC2)CC1)Nc1c(C(=O)C2CC2)[nH]c2ccccc12` [Example 41] was 6.4; that for `CC1(C)CCCN(CC(=O)Nc2c(C(=O)C3CC3)[nH]c3ccc(S(C)(=O)=O)cc23)C1` [Example 48] was 6.3; that for `CC(C)=C1CCN(CC(=O)Nc2c(C(=O)C3CC3)[nH]c3ccccc23)CC1` [Example 50] was 6.1.
Take `Cc1cccc(N2CCN(CC(=O)Nc3c(C(=O)C4CC4)[nH]c4ccc(Br)cc34)CC2)c1C` [Example 9]: the “hMC4R PAM LANCE pEC50 Mean” value is given as 6.4.
Still for that read-out and setting: to `CC1(C)CCCN(CC(=O)Nc2c(C(=O)C3CC3)[nH]c3ccccc23)C1` [Example 23] belongs 6.1; to `COC(=O)c1[nH]c2ccc(Br)cc2c1NC(=O)CN1CCCC(C)(C)C1` [Example 79], 6.1.
For the molecule `CC(=O)c1[nH]c2ccccc2c1NC(=O)C(C)N1CCC(C2CCCC2)CC1` (stereo not shown) [Example 70], the “hMC4R PAM LANCE pEC50 Mean” value came out at 6.4.
Same read-out and setting: the value for `CS(=O)(=O)c1ccc2[nH]c(C(=O)C3CC3)c(NC(=O)CN3CCC(C4CCCCC4)CC3)c2c1` [Example 58] was 7.1; that for `COC(=O)c1[nH]c2ccc(Br)cc2c1NC(=O)CN1CCN(C(c2ccccc2)c2ccccc2)CC1` [Example 47] was 6.2; that for `COC(=O)c1[nH]c2ccc(Cl)cc2c1NC(=O)CN1CCN(c2ccccc2)CC1` [Example 15] was 6.2.
Consider `COC(=O)c1[nH]c2ccccc2c1NC(=O)CN1CCN(Cc2ccccc2)C(C)(C)C1` [Example 57], for which the “hMC4R PAM LANCE pEC50 Mean” value amounted to 5.6.
The same measure, in the same setting: to `COC(=O)c1[nH]c2ccc(Cl)cc2c1NC(=O)C(C)N1CCC(Cc2ccccc2)CC1` (stereo not shown) [Example 78] belongs 6; to `COC(=O)c1[nH]c2ccc(Br)cc2c1NC(=O)CN1CCC(c2ccccc2)CC1` [Example 39], 6.6; to `COC(=O)c1[nH]c2ccccc2c1NC(=O)CN1CCC(Nc2ccccc2)CC1` [Example 55], 5.8.
`O=C(CN1CCC(c2ccccc2)CC1)Nc1c(C(=O)C2CC2)[nH]c2ccc(N3CCOCC3)cc12` [Example 69]: the “hMC4R PAM LANCE pEC50 Mean” value was determined as 6.3.
Same read-out and setting: to `COC(=O)c1[nH]c2ccc(Cl)cc2c1NC(=O)CN1CCCC(C)(C)C1` [Example 80] belongs 6; to `COC(=O)c1[nH]c2cc(Br)ccc2c1NC(=O)CN1CCN(c2ccc(F)cc2)CC1` [Example 6], 6.4; to `COC(=O)c1[nH]c2ccccc2c1NC(=O)CN1CCC(Oc2ccccc2)CC1` [Example 25], 6.
Still for that read-out and setting: the value for `O=C(CN1CCC(C2CCCC2)CC1)Nc1c(C(=O)C2CC2)[nH]c2ccc(Cl)cc12` [Example 63] was 6.7; that for `CC(=O)c1[nH]c2ccncc2c1NC(=O)CN1CCC(C(C)(C)C)CC1` [Example 72] was 6.3; that for `O=C(CN1CCC(c2ccccc2)CC1)Nc1c(C(=O)C2CC2)[nH]c2ccccc12` [Example 16] was 6.2.
In the case of `COC(=O)c1[nH]c2ccccc2c1NC(=O)CN1CCC(c2ccccc2)CC1` [Example 11], the “hMC4R PAM LANCE pEC50 Mean” value was 6.5.
Same read-out and setting: the value for `COC(=O)c1[nH]c2ccccc2c1NC(=O)CN1CCCC2(CCC2)C1` [Example 29] was 5.9.
On to `O=C(CN1CCC(C2CCCCC2)CC1)Nc1c(C(=O)C2CC2)[nH]c2ccncc12` [Example 62], for which the “hMC4R PAM LANCE pEC50 Mean” value is on record as 6.6.
Still for that read-out and setting: the value for `O=C(CN1CCC2(CCCC2)CC1)Nc1c(C(=O)C2CC2)[nH]c2ccncc12` [Example 68] was 6.4.

The record behind these values is patent publication US10294214B2, “Positive allosteric modulators of human melanocortin-4 receptor” (Vanderbilt University, priority 2016, dated 2019).
